Key:
HLA-A*02:01 = HLA-A*02:01 (Homo sapiens, UniProt P04439, D140Y/D185E/D98H/E176V/E277Q/G131W/G231S/I119V/I121R/I166T/I218V/L300P/L318F/N151K/N90K/P208A/P217A/Q86G/Q94H/R138H/R169H/T345S); test: MHC binding assay: UV-ligand exchange with beta2m ELISA (exchange yield); conditions: binding to HLA-A*02:01, β2m ELISA
Outline: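 Peptide–HLA-A*02:01 complexes formed by UV-induced exchange of a photocleavable ligand for the test peptide. Exchange products diluted 100-fold and captured on streptavidin-coated plates. Stabilized complexes detected with HRP anti-β2m (1 h, 37° C.) and TMB, A450; exchange yield reported.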

CD8+ T cells = test: In vitro T-cell priming assay with aAPCs loaded with peptide/MHC complexes and anti-CD28, multimer staining readout (in vitro immunogenicity); format: cell-based, human; conditions: for donors (positive donors, in vitro immunogenicity) / wells (positive wells, in vitro immunogenicity): HLA class I peptides; for donors (positive donors, in vitro immunogenicity): percentage of positive donors among evaluable; for wells (positive wells, in vitro immunogenicity): percentage of positive wells; for Wells positive [%]: HLA-A*02 restricted peptides
Excerpt: In order to obtain information regarding the immunogenicity of the TUMAPs of the present invention, the inventors performed investigations using an in vitro T-cell priming assay based on repeated stimulations of CD8+ T cells with artificial antigen presenting cells (aAPCs) loaded with peptide/MHC complexes and anti-CD28 antibody.
In order to perform in vitro stimulations by artificial antigen presenting cells loaded with peptide-MHC complex (pMHC) and anti-CD28 antibody, the inventors first isolated CD8+ T cells from fresh HLA-A*02 leukapheresis products via positive selection using CD8 microbeads (Miltenyi Biotec, Bergisch-Gladbach, Germany) of healthy donors obtained from the University clinics Mannheim, Germany, after informed consent.
PBMCs and isolated CD8+ lymphocytes were incubated in T-cell medium (TCM) until use consisting of RPMI-Glutamax (Invitrogen, Karlsruhe, Germany) supplemented with 10% heat inactivated human AB serum (PAN-Biotech, Aidenbach, Germany), 100 U/ml Penicillin/100 μg/ml Streptomycin (Cambrex, Cologne, Germany), 1 mM sodium pyruvate (CC Pro, Oberdorla, Germany), 20 μg/ml Gentamycin (Cambrex). 2.5 ng/ml IL-7 (PromoCell, Heidelberg, Germany) and 10 U/ml IL-2 (Novartis Pharma, Nurnberg, Germany) were also added to the TCM at this step.
Generation of pMHC/anti-CD28 coated beads, T-cell stimulations and readout was performed in a highly defined in vitro system using four different pMHC molecules per stimulation condition and 8 different pMHC molecules per readout condition.
The purified co-stimulatory mouse IgG2a anti human CD28 Ab 9.3 (Jung et al., 1987) was chemically biotinylated using Sulfo-N-hydroxysuccinimidobiotin as recommended by the manufacturer (Perbio, Bonn, Germany). Beads used were 5.6 μm diameter streptavidin coated polystyrene particles (Bangs Laboratories, Illinois, USA).
pMHC used for positive and negative control stimulations were A*0201/MLA-001 (peptide […] (SEQ ID NO. 664) from modified Melan-A/MART-1) and A*0201/DDX5-001 ([…] from DDX5, SEQ ID NO. 665), respectively.
800.000 beads/200 μl were coated in 96-well plates in the presence of 4×12.5 ng different biotin-pMHC, washed and 600 ng biotin anti-CD28 were added subsequently in a volume of 200 μl. Stimulations were initiated in 96-well plates by co-incubating […] CD8+ T cells with 2×10^5 washed coated beads in 200 μl TCM supplemented with 5 ng/ml IL-12 (PromoCell) for 3 days at 37° C. Half of the medium was then exchanged by fresh TCM supplemented with 80 U/ml IL-2 and incubating was continued for 4 days at 37° C. This stimulation cycle was performed for a total of three times. For the pMHC multimer readout using 8 different pMHC molecules per condition, a two-dimensional combinatorial coding approach was used as previously described (Andersen et al., 2012) with minor modifications encompassing coupling to 5 different fluorochromes. Finally, multimeric analyses were performed by staining the cells with Live/dead near IR dye (Invitrogen, Karlsruhe, Germany), CD8-FITC antibody clone SK1 (BD, Heidelberg, Germany) and fluorescent pMHC multimers. For analysis, a BD LSRII SORP cytometer equipped with appropriate lasers and filters was used. Peptide specific cells were calculated as percentage of total CD8+ cells. Evaluation of multimeric analysis was done using the FlowJo software (Tree Star, Oreg., USA). In vitro priming of specific multimer+ CD8+ lymphocytes was detected by comparing to negative control stimulations.
Exemplary flow cytometry results after TUMAP-specific multimer staining for two peptides of the invention are shown in FIG. 3 together with corresponding negative controls.

Substance	Peptide exchange (MHC class I binding score, peptide exchange yield) (HLA-A*02:01)	donors (positive donors, in vitro immunogenicity) (CD8+ T cells)	wells (positive wells, in vitro immunogenicity) (CD8+ T cells)	Wells positive [%] (CD8+ T cells)
283 (ALYIGDGYVIHLA; listed as Homo sapiens) [compound 283]	“+++” (≥50 = +++)	+++ (50%-69% = +++)	+ (<20% = +)	–
659 (ILFPDIIARA; listed as Homo sapiens) [compound 659]	–	+++ (50%-69% = +++)	+ (<20% = +)	–
60 (SLTIDGIYYV; listed as Homo sapiens) [compound 60]	“++++” (≥75% = ++++)	–	–	“++++” (>=70% = ++++)
113 (GLLPTPLFGV; listed as Homo sapiens) [compound 113]	“+++” (≥50 = +++)	–	–	“+” (<20% = +)
648 (LLWGNAIFL; listed as Homo sapiens) [compound 648]	–	+++ (50%-69% = +++)	++ (20%-49% = ++)	–
79 (SLFIGEKAVLL; listed as Homo sapiens) [compound 79]	“+++” (≥50 = +++)	–	–	“+” (<20% = +)
443 (GLWEIENNPTV; listed as Homo sapiens) [compound 443]	“+++” (≥50 = +++)	–	–	“+” (<20% = +)
247 (VLLPNDLLEKV; listed as Homo sapiens) [compound 247]	“+++” (≥50 = +++)	–	–	“+” (<20% = +)
2 (SLLEADPFL; listed as Homo sapiens) [compound 2]	“+++” (≥50 = +++)	–	–	“+” (<20% = +)
603 (FLIEPEHVNTV; listed as Homo sapiens) [compound 603]	“++” (≥20% = ++)	–	–	“+” (<20% = +)
319 (SLEPQIQPV; listed as Homo sapiens) [compound 319]	“++” (≥20% = ++)	–	–	“+” (<20% = +)
38 (FLLEDDIHVS; listed as Homo sapiens) [compound 38]	“+++” (≥50 = +++)	–	–	“+” (<20% = +)
11 (KIFEMLEGV; listed as Homo sapiens) [compound 11]	“+++” (≥50 = +++)	–	–	“+” (<20% = +)
166 (YLNHLEPPV; listed as Homo sapiens) [compound 166]	“+++” (≥50 = +++)	–	–	“++++” (>=70% = ++++)
199 (ALQDVPLSSV; listed as Homo sapiens) [compound 199]	“+++” (≥50 = +++)	–	–	“+” (<20% = +)
663 (KIQEMQHFL; listed as Homo sapiens) [compound 663]	–	+++ (50%-69% = +++)	+ (<20% = +)	–

Substance	Peptide exchange (MHC class I binding score, peptide exchange yield) (HLA-A*02:01)	donors (positive donors, in vitro immunogenicity) (CD8+ T cells)	wells (positive wells, in vitro immunogenicity) (CD8+ T cells)	Wells positive [%] (CD8+ T cells)
141 (YLDFSNNRL; listed as Homo sapiens) [compound 141]	“++” (≥20% = ++)	–	–	“+” (<20% = +)
489 (KMWEELPEVV; listed as Homo sapiens) [compound 489]	“+++” (≥50 = +++)	–	–	“+” (<20% = +)
662 (KIQEILTQV; listed as Homo sapiens) [compound 662]	–	+++ (50%-69% = +++)	+ (<20% = +)	–
460 (AMLEKNYKL; listed as Homo sapiens) [compound 460]	“++++” (≥75% = ++++)	–	–	“+” (<20% = +)
499 (KIFDIDEAEEGV; listed as Homo sapiens) [compound 499]	“++” (≥20% = ++)	–	–	“+” (<20% = +)
48 (ALAELYEDEV; listed as Homo sapiens) [compound 48]	“+++” (≥50 = +++)	–	–	“+” (<20% = +)
150 (RLWEEGEELEL; listed as Homo sapiens) [compound 150]	“+++” (≥50 = +++)	–	–	“+” (<20% = +)
3 (SLASKLTTL; listed as Homo sapiens) [compound 3]	“++++” (≥75% = ++++)	–	–	“+” (<20% = +)
8 (FTLGNVVGMYL; listed as Homo sapiens) [compound 8]	“++++” (≥75% = ++++)	–	–	“+” (<20% = +)
143 (LLLDITPEI; listed as Homo sapiens) [compound 143]	“++++” (≥75% = ++++)	–	–	“+” (<20% = +)
511 (FLDPYCSASV; listed as Homo sapiens) [compound 511]	“++” (≥20% = ++)	–	–	“+” (<20% = +)
652 (TLWYRAPEV; listed as Homo sapiens) [compound 652]	–	++++ (>=70% = ++++)	+++ (50%-69% = +++)	–
118 (KLIDNNINV; listed as Homo sapiens) [compound 118]	“+++” (≥50 = +++)	–	–	“+” (<20% = +)
36 (YVLEDLEVTV; listed as Homo sapiens) [compound 36]	“++” (≥20% = ++)	–	–	“+” (<20% = +)
56 (KLYEGIPVLL; listed as Homo sapiens) [compound 56]	“++++” (≥75% = ++++)	–	–	“+” (<20% = +)
384 (ILFANPNIFV; listed as Homo sapiens) [compound 384]	“+++” (≥50 = +++)	–	–	“+” (<20% = +)

Reference: patent publication US10280205B2, “Method for treating cancer with an activated T lymphocyte that selectively recognizes a cancer cell consisting of specific peptide” (immatics biotechnologies GmbH, priority 2015, dated 2019)
